Data taken from patent publication US20230108906A1, “SUBSTITUTED BICYCLIC AND TRICYCLIC UREAS AND AMIDES, ANALOGUES THEREOF, AND METHODS USING SAME” (Arbutus Biopharma Corporation, priority 2019, published 2023).

tested on: HBV rcDNA in HepDE19 cells; assay: HepDE19 assay with bDNA quantitation of HBV rcDNA; format: cell-based, hepatitis B virus (HBV); conditions: Hepatitis B virus, HepDE19, 168 h, inhibition of rcDNA formation in HepDE19 cells (HepG2 derived), Tet-free medium, 7 day incubation, Quantigene 2.0 bDNA readout, top concentration 25 μM; read-out: DE-19bDNA EC50
Outline: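 Cytotoxicity run on replicate plates (5,000 cells/well, 4 days, ATP luminescence, CC50), while antiviral plates (50,000 cells/well) received compound for 7 days after tetracycline withdrawal to induce HBV replication. Top dose 25 μM, 8 points, 0.5% DMSO; rcDNA by branched-DNA assay, % inhibition fitted (4-parameter) for EC50 and EC90.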

SMILES	EC50
Cc1cc(NC(=O)N(C)C2COCc3[nH]c(=O)c4cc(Cl)ccc4c32)ccc1F (stereo not shown) [Compound 58, 1-(8-Chloro-6-oxo-1,4,5,6-tetrahydro-2H-pyrano[3,4-c]isoquinolin-1-yl)-3-(4-fluoro-3-methylphenyl)-1-methylurea]	0.04 µM
CCN(C(=O)Nc1ccc(F)c(C)c1)C1COCc2[nH]c(=O)c3cc(Cl)ccc3c21 (stereo not shown) [Compound 59, 1-(8-Chloro-6-oxo-1,4,5,6-tetrahydro-2H-pyrano[3,4-c]isoquinolin-1-yl)-1-ethyl-3-(4-fluoro-3-methylphenyl)urea]	0.02 µM
CN(C(=O)Nc1ccc(F)c(C#N)c1)C1COCc2[nH]c(=O)c3cc(Cl)ccc3c21 (stereo not shown) [Compound 65, 1-(8-Chloro-6-oxo-1,4,5,6-tetrahydro-2H-pyrano[3,4-c]isoquinolin-1-yl)-3-(3-cyano-4-fluorophenyl)-1-methylurea]	0.08 µM
CCN(C(=O)Nc1ccc(F)c(C#N)c1)C1COCc2[nH]c(=O)c3cc(Cl)ccc3c21 (stereo not shown) [Compound 66, 1-(8-Chloro-6-oxo-1,4,5,6-tetrahydro-2H-pyrano[3,4-c]isoquinolin-1-yl)-3-(3-cyano-4-fluorophenyl)-1-ethylurea]	0.05 µM
CN(C(=O)Nc1ccc(F)c(Cl)c1)C1COCc2[nH]c(=O)c3ccc(F)cc3c21 (stereo not shown) [Compound 73, 3-(3-Chloro-4-fluorophenyl)-1-(9-fluoro-6-oxo-1,4,5,6-tetrahydro-2H-pyrano[3,4-c]isoquinolin-1-yl)-1-methylurea]	0.02 µM
CCN(C(=O)Nc1ccc(F)c(Cl)c1)C1COCc2[nH]c(=O)c3ccc(F)cc3c21 (stereo not shown) [Compound 74, 3-(3-Chloro-4-fluorophenyl)-1-ethyl-1-(9-fluoro-6-oxo-1,4,5,6-tetrahydro-2H-pyrano[3,4-c]isoquinolin-1-yl)urea]	0.02 µM
Cc1cc(NC(=O)N(C)C2COCc3[nH]c(=O)c4ccc(F)cc4c32)ccc1F (stereo not shown) [Compound 75, 3-(4-Fluoro-3-methylphenyl)-1-(9-fluoro-6-oxo-1,4,5,6-tetrahydro-2H-pyrano[3,4-c]isoquinolin-1-yl)-1-methylurea]	0.02 µM
CCN(C(=O)Nc1ccc(F)c(C)c1)C1COCc2[nH]c(=O)c3ccc(F)cc3c21 (stereo not shown) [Compound 76, 1-Ethyl-3-(4-fluoro-3-methylphenyl)-1-(9-fluoro-6-oxo-1,4,5,6-tetrahydro-2H-pyrano[3,4-c]isoquinolin-1-yl)urea]	0.01 µM
CN(C(=O)Nc1ccc(F)c(C#N)c1)C1COCc2[nH]c(=O)c3ccc(F)cc3c21 (stereo not shown) [Compound 77, 3-(3-Cyano-4-fluorophenyl)-1-(9-fluoro-6-oxo-1,4,5,6-tetrahydro-2H-pyrano[3,4-c]isoquinolin-1-yl)-1-methylurea]	0.05 µM
CCN(C(=O)Nc1ccc(F)c(C#N)c1)C1COCc2[nH]c(=O)c3ccc(F)cc3c21 (stereo not shown) [Compound 78, 3-(3-Cyano-4-fluorophenyl)-1-ethyl-1-(9-fluoro-6-oxo-1,4,5,6-tetrahydro-2H-pyrano[3,4-c]isoquinolin-1-yl)urea]	0.04 µM
CN(C(=O)Nc1ccc(F)c(Cl)c1)C1CCCc2[nH]c(=O)c3c(c21)COCC3 (stereo not shown) [Compound 80, 3-(3-Chloro-4-fluorophenyl)-1-methyl-1-(5-oxo-3,4,5,6,7,8,9,10-octahydro-1H-pyrano[4,3-c]quinolin-10-yl)urea]	2.8 µM
CN(C(=O)Nc1ccc(F)c(Cl)c1)C1COCc2[nH]c(=O)c3cc(C#N)ccc3c21 (stereo not shown) [Compound 89, 3-(3-Chloro-4-fluorophenyl)-1-(8-cyano-6-oxo-1,4,5,6-tetrahydro-2H-pyrano[3,4-c]isoquinolin-1-yl)-1-methylurea]	1.1 µM
CCN(C(=O)Nc1ccc(F)c(Cl)c1)C1COCc2[nH]c(=O)c3cc(C#N)ccc3c21 (stereo not shown) [Compound 90, 3-(3-Chloro-4-fluorophenyl)-1-(8-cyano-6-oxo-1,4,5,6-tetrahydro-2H-pyrano[3,4-c]isoquinolin-1-yl)-1-ethylurea]	0.36 µM
CN(C(=O)Nc1ccc(F)c(Cl)c1)C1COCc2[nH]c(=O)c3sccc3c21 (stereo not shown) [Compound 95, 3-(3-Chloro-4-fluorophenyl)-1-methyl-1-(6-oxo-1,4,5,6-tetrahydro-2H-pyrano[3,4-b]thieno[3,2-d]pyridin-1-yl)urea]	0.03 µM
CN(C(=O)Nc1ccc(F)c(Cl)c1)C1COCc2[nH]c(=O)c3ccsc3c21 (stereo not shown) [Compound 96, 3-(3-chloro-4-fluorophenyl)-1-methyl-1-(4-oxo-4,6,8,9-tetrahydro-5H-pyrano[3,4-b]thieno[2,3-d]pyridin-9-yl)urea]	0.08 µM
CN(C(=O)Nc1ccc(F)c(Cl)c1)C1COCc2[nH]c(=O)c3cscc3c21 (stereo not shown) [Compound 105, 3-(3-Chloro-4-fluorophenyl)-1-methyl-1-(4-oxo-4,5,8,9-tetrahydro-6H-pyrano[3,4-b]thieno[3,4-d]pyridin-9-yl)urea]	0.02 µM
CN(C(=O)Nc1ccc(F)c(C(F)F)c1)C1COCc2[nH]c(=O)c3cc(F)ccc3c21 (stereo not shown) [Compound 124, 3-(3-(Difluoromethyl)-4-fluorophenyl)-1-(8-fluoro-6-oxo-1,4,5,6-tetrahydro-2H-pyrano[3,4-c]isoquinolin-1-yl)-1-methylurea]	0.01 µM
CN(C(=O)Nc1ccc(Cl)c(F)c1)[C@@H]1COCc2[nH]c(=O)c3cc(F)c(F)cc3c21 [Compound 141, (S)-3-(4-Chloro-3-fluorophenyl)-1-(8,9-difluoro-6-oxo-1,4,5,6-tetrahydro-2H-pyrano[3,4-c]isoquinolin-1-yl)-1-methylurea]	0.02 µM
CN(C(=O)Nc1ccc(Cl)c(C#N)c1)[C@@H]1COCc2[nH]c(=O)c3cc(F)c(F)cc3c21 [Compound 142, (S)-3-(4-Chloro-3-cyanophenyl)-1-(8,9-difluoro-6-oxo-1,4,5,6-tetrahydro-2H-pyrano[3,4-c]isoquinolin-1-yl)-1-methylurea]	0.03 µM
CN(C(=O)Nc1ccc(Cl)c(Cl)c1)[C@@H]1COCc2[nH]c(=O)c3cc(F)c(F)cc3c21 [Compound 143, (S)-3-(3,4-Dichlorophenyl)-1-(8,9-difluoro-6-oxo-1,4,5,6-tetrahydro-2H-pyrano[3,4-c]isoquinolin-1-yl)-1-methylurea]	0.02 µM
CN(C(=O)NC1(C(F)(F)F)CC1)C1CCCc2[nH]c(=O)c3cc(F)c(F)cc3c21 (stereo not shown) [Compound 144, 1-(8,9-Difluoro-6-oxo-1,2,3,4,5,6-hexahydrophenanthridin-1-yl)-1-methyl-3-(1-(trifluoromethyl)cyclopropyl)urea]	20 µM
CN(C(=O)NC1(C(F)(F)F)CC1)[C@@H]1COCc2[nH]c(=O)c3cc(F)c(F)cc3c21 [Compound 145, (S)-1-(8,9-Difluoro-6-oxo-1,4,5,6-tetrahydro-2H-pyrano[3,4-c]isoquinolin-1-yl)-1-methyl-3-(1-(trifluoromethyl)cyclopropyl)urea]	9 µM
CN(C(=O)Nc1ccc(O)c(Cl)c1)[C@@H]1COCc2[nH]c(=O)c3cc(F)c(F)cc3c21 [Compound 148, (S)-3-(3-Chloro-4-hydroxyphenyl)-1-(8,9-difluoro-6-oxo-1,4,5,6-tetrahydro-2H-pyrano[3,4-c]isoquinolin-1-yl)-1-methylurea]	0.76 µM
CN(C(=O)Nc1ccc(F)c(Cl)c1)C1COC(O)c2[nH]c(=O)c3cc(F)c(F)cc3c21 (stereo not shown) [Compound 151, 3-(3-Chloro-4-fluorophenyl)-1-(8,9-difluoro-4-hydroxy-6-oxo-1,4,5,6-tetrahydro-2H1-pyrano[3,4-c]isoquinolin-1-yl)-1-methylurea]	0.02 µM
CN1Cc2[nH]c(=O)c3cc(F)c(F)cc3c2C(N(C)C(=O)Nc2ccc(F)c(C#N)c2)C1 (stereo not shown) [Compound 173, 3-(3-Cyano-4-fluorophenyl)-1-(8,9-difluoro-3-methyl-6-oxo-1,2,3,4,5,6-hexahydrobenzo[c][1,7]naphthyridin-1-yl)-1-methylurea]	13 µM
CN(C(=O)Nc1ccc(F)c(Cl)c1)C1C[S+]([O-])Cc2[nH]c(=O)c3cc(F)ccc3c21 (stereo not shown) [Compound 193, 3-(3-Chloro-4-fluorophenyl)-1-(8-fluoro-3-oxido-6-oxo-1,4,5,6-tetrahydro-2H-thiopyrano[3,4-c]isoquinolin-1-yl)-1-methylurea]	4.4 µM
CN(C(=O)N1Cc2ccccc2C1)[C@@H]1COCc2[nH]c(=O)c3cc(F)c(F)cc3c21 [Compound 218, (S)—N-(8,9-Difluoro-6-oxo-1,4,5,6-tetrahydro-2H-pyrano[3,4-c]isoquinolin-1-yl)-N-methylisoindoline-2-carboxamide]	1.2 µM
CN(C(=O)N1Cc2ccc(Cl)cc2C1)[C@@H]1COCc2[nH]c(=O)c3cc(F)c(F)cc3c21 [Compound 219, (S)-5-Chloro-N-(8,9-difluoro-6-oxo-1,4,5,6-tetrahydro-2H-pyrano[3,4-c]isoquinolin-1-yl)-N-methylisoindoline-2-carboxamide]	5.9 µM
CN(C(=O)N1Cc2ccc(Br)cc2C1)[C@@H]1COCc2[nH]c(=O)c3cc(F)c(F)cc3c21 [Compound 220, (S)-5-Bromo-N-(8,9-difluoro-6-oxo-1,4,5,6-tetrahydro-2H-pyrano[3,4-c]isoquinolin-1-yl)-N-methylisoindoline-2-carboxamide]	13 µM
CN(C(=O)N1Cc2ccc(F)cc2C1)[C@@H]1COCc2[nH]c(=O)c3cc(F)c(F)cc3c21 [Compound 221, (S)—N-(8,9-Difluoro-6-oxo-1,4,5,6-tetrahydro-2H-pyrano[3,4-c]isoquinolin-1-yl)-5-fluoro-N-methylisoindoline-2-carboxamide]	5.9 µM

same assay, conditions: Hepatitis B virus, HepDE19, 168 h, read-out: DE-19bDNA EC50 (uM), inhibition of rcDNA formation in HepDE19 cells (HepG2 derived), Tet-free medium, 7 day incubation, Quantigene 2.0 bDNA readout, top concentration 25 μM

SMILES	EC50
COc1ccc(NC(=O)N(C)[C@@H]2COCc3[nH]c(=O)c4cc(F)c(F)cc4c32)cc1Cl [Compound 147, (S)-3-(3-Chloro-4-methoxyphenyl)-1-(8,9-difluoro-6-oxo-1,4,5,6-tetrahydro-2H-pyrano[3,4-c]isoquinolin-1-yl)-1-methylurea]	0.14 µM
